Measured values from patent publication US10329294B2, “Pyrazolopyrimidine inhibitors of IRAK4 activity” (MERCK SHARP & DOHME CORP., priority 2015, dated 2019).
Counter-ions that a name gives are not always drawn. Like-named read-outs stand apart in the source and are kept apart here.

Target: IRAK4 (Homo sapiens (Human), UniProt Q9NWZ3)
Experiment: IRAK4 Kinase Assay
Type: biochemical
Conditions: IMAP fluorescence polarization, 0.5 nM GST tagged IRAK4, 100 μM ATP, 30 minutes at 25° C.

Chain of IRAK4 (Q9NWZ3 whole entry): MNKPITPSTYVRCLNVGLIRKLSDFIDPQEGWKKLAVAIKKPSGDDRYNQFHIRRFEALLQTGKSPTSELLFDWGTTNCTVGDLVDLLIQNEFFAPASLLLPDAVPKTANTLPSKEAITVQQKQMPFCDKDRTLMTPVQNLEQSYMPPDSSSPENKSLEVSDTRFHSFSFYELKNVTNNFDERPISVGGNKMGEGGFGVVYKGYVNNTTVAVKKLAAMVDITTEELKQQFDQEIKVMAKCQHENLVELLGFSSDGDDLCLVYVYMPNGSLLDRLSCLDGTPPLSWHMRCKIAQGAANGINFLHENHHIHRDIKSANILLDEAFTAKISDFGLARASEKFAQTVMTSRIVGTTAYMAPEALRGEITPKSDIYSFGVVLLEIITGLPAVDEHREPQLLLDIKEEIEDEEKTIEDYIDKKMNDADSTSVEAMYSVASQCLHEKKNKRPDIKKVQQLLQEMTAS

SMILES | IC50 (read-out: IRAK4 IC50) [nM] | IC50 (IRAK4 IC50 (nM)) [nM]
Cn1cc(NC(=O)c2cnn3ccc(N4CCC[C@H](N)C4)nc23)c(C(F)(F)F)n1 [Example 44, 5-[(3S)-3-aminopiperidin-1-yl]-N-[1-methyl-3-(trifluoromethyl)-1H-pyrazol-4-yl]pyrazolo[1,5-a]pyrimidine-3-carboxamide] | 5 | 
N#Cc1sccc1NC(=O)c1cnn2ccc(N[C@@H]3CCCC[C@@H]3N)nc12 [Example 42, 5-{[(1R,2S)-2-aminocyclohexyl]amino}-N-(2-cyanothiophen-3-yl)pyrazolo[1,5-a]pyrimidine-3-carboxamide trifluoroacetate] | 0.9 | 
N[C@H]1CCCC[C@H]1Nc1ccn2ncc(C(=O)Nc3cn(CC(F)(F)F)nc3C(F)(F)F)c2n1 [Example 295, 5-{[(1R,2S)-2-aminocyclohexyl]amino}-N-[1-(2,2,2-trifluoroethyl)-3-(trifluoromethyl)-1H-pyrazol-4-yl]pyrazolo[1,5-a]pyrimidine-3-carboxamide trifluoroacetate] | 1 | 
CC(C)n1cc(NC(=O)c2cnn3ccc(N[C@@H]4CCCC[C@@H]4O)nc23)c(C(F)(F)F)n1 [Example 52, 5-{[(1R,2S)-2-hydroxycyclohexyl]amino}-N-[1-(1-methylethyl)-3-(trifluoromethyl)-1H-pyrazol-4-yl]pyrazolo[1,5-a]pyrimidine-3-carboxamide] |  | 64
O=C(Nc1cn(C(F)F)nc1C(F)(F)F)c1cnn2ccc(N3CCNCC4(CC4)C3)nc12 [Example 68, 5-(5,8-diazaspiro[2.6]non-5-yl)-N-[1-(difluoromethyl)-3-(trifluoromethyl)-1H-pyrazol-4-yl]pyrazolo[1,5-a]pyrimidine-3-carboxamide trifluoroacetate] | 32 | 
